This note sets out measurements from article PMC3252867, “Marilones A–C, phthalides from the sponge-derived fungus Stachylidium sp” (Beilstein Journal of Organic Chemistry, 2011).

Molecules are shown by their SMILES. Read-outs that look alike come from different tables or passages of the source.

Holding throughout (assay): cells
Common to all, as to parameters: antiproliferative activity in human cancer cell lines, growth inhibition corrected for starting population (GI50)
Details in all cases: Homo sapiens

The test system of test [1] is MCF7.
The subject of test [2] is NCI-H460.
The subject of test [3] is SF268.

As for `COc1c(C)c(OC/C=C(\C)CCC=C(C)C)cc2c1C(=O)O[C@H]2C` (racemic) [compound 1, Marilone A], the GI50 – broadly, the concentration at which growth is held to half of that of the control – in test [1] (MCF7, read-out: GI50 (1)) was 28.8 µM; in test [2] (NCI-H460, read-out: GI50 (1)) it was 42.9 µM; in test [3] (SF-268, read-out: GI50 (1)), 38.4 µM.

For the compound `COc1cc([C@@H]2c3cc4c(cc3[C@@H](O[C@@H]3O[C@@H]5CO[C@@H](C)O[C@H]5[C@H](O)[C@H]3O)[C@H]3COC(=O)[C@H]23)OCO4)cc(OC)c1O` [Etoposide], the GI50 in test [1] (MCF7, read-out: GI50 Etoposide) amounted to 22.8 µM; in test [2] (NCI-H460, read-out: GI50 Etoposide), 0.4 µM; in test [3] (SF-268, read-out: GI50 Etoposide) it was 7.7 µM.

For `COc1c(C)c(OC/C=C(\C)CCC=C(C)C)cc2c1COC2=O` [compound 3, Marilone C], the GI50 in test [1] (MCF7, read-out: GI50 (3)) worked out at 20 µM; in test [2] (NCI-H460, read-out: GI50 (3)), 31 µM; in test [3] (SF-268, read-out: GI50 (3)) it was 28.9 µM.
